Values joined by “and” are separate entries in the source; they are usually repeats but may differ in a detail not shown here. Equal values may be shown once.

A short description of series [1]: Stability in liver microsome (human). It is filed as in vitro ADME. Particulars: 2 μM, 30 minutes, 37° C. How it is done:
(§1) Experimental instruments: thermostatic oscillator (SHA-B, Guohua Instrument); centrifuge (5810R, Eppendorf), mass spectrometer (API4000, Applied), liquid chromatography (LC-30AD, Shimadzu); sampler (CTC Analytics AG System, CTC).
(§2) Experimental procedures: to 100 mM phosphate buffer was added 25 μg/mL alamethicin (Aldrich Reagents), 5 mM magnesium chloride and 0.5 mg/mL microsomes (XENOTECH) to prepare a reaction solution without coenzymes. To a portion of the reaction solution was added 1 mM reduced nicotinamide adenine dinucleotide phosphate (Aldrich Reagents) and 5 mM uridine diphosphate glucuronic acid (Aldrich Reagents) to prepare a reaction solution with coenzymes. […] Immediately after mixing well, 50 μL of the solution was collected as the 0-minute sample, and another 50 μL was collected after 30 minutes of incubation of the remaining sample at 37° C. The proteins in all collected samples were immediately precipitated, and the supernatants were collected by centrifugation, in which the compound concentrations were determined by LC/MS/MS.
A general note: Liver microsomes are a subcellular fraction often used to study metabolism.

A short description of series [2]: Stability in liver microsome (dog). It is filed as in vitro ADME. Particulars: 2 μM, 30 minutes, 37° C. The method, then:
as §1, §2

Series [3] can be described thus: Stability in liver microsome (rat). The class given is in vitro ADME. Particulars: 2 μM, 30 minutes, 37° C. How it is done: as §1, §2
A short description of series [4]: Stability in liver microsome (mouse). The class given is in vitro ADME. Particulars: 2 μM, 30 minutes, 37° C. The method, then: as §1, §2
Series [5] can be described thus: Pharmacokinetic assay in dogs. Particulars: beagles. It is filed as in vivo. The source says: Nitroxoline is mainly metabolized by Phase II metabolism in the liver with a high metabolism rate, thus the in vivo half-life is short. In this experiment, after a single intravenous or oral administration of nitroxoline and the compound obtained in Example 1 to dogs, the changes in the concentration of the compound nitroxoline in dog plasma were studied, so as to evaluate the in vivo pharmacokinetic behaviors of nitroxoline and the compound obtained in Example 1.
Male beagles (Beijing Marshall Bioresources Co., Ltd., laboratory animal production license No.: SCXK (Beijing) 2016-0001, laboratory animal certificate No.: 11400600001728), 3 beagles per group, weight 10-13 kg, 20-22 months old, were fasted overnight before drug administration with free access to water, and food was given 4 hours after drug administration. The compound to be tested was put into an EP tube, dimethyl sulfoxide, Solutol® and sterile water for injection (the volume ratio of the three was 1:2:17, v:v:v) were added, and the EP tube was sonicated for 20 minutes to fully dissolve the compound (formulation concentration of the compound: 0.005 mmol/mL). The intravenous dose was 0.01 mmol/kg, and the oral dose was 0.1 mmol/kg. 0.3 ml of whole blood was collected from the jugular vein before drug administration (0 hour) and 0.0833, 0.25, 0.5, 0.75, 1, 2, 4, 6, 8, 10 and 12 hours after drug administration (the sampling points were adjusted according to the situation) and placed in a centrifuge tube containing EDTA-K2 (Aldrich Reagents) for anticoagulation, which was placed in crushed ice after sample collection. The tube was centrifuged at 1530 g for 10 minutes within 0.5 hours of sample collection. All clean plasma were isolated and placed in another clean centrifuge tube, which was placed in a −20° C. refrigerator until testing.
A series of solutions for standard curve was prepared. To 10 μL of solutions for standard curve and samples was added 1000 μL of internal standard working solution (a solution of 5 ng/mL verapamil (Aldrich Reagents), 50 ng/mL glibenclamide (Aldrich Reagents) and 50 ng/mL diclofenac (Aldrich Reagents) in acetonitrile) was added, and the resulting solution was vortexed for 5 minutes. After centrifuging at 4° C., 3700 rpm for 10 minutes, 60 μL of the supernatant was collected into a sample tube and mixed well with 120 μL of water, and 10 μL of the mixed solution was injected into the LC/MS system for determination. Pharmacokinetic parameters were calculated using WinNonlin V6.2 non-compartmental model.

A short description of series [6]: Pharmacokinetic assay in rats. The class given is in vivo. The conditions noted are these: SD rats, oral 0.1 mmol/kg, 24 h, individual animals. The source says: In this experiment, after a single intravenous or oral administration of nitroxoline and the compound obtained in Example 1 to rats, the changes in the concentration of the compound nitroxoline in rat plasma were studied, so as to evaluate the in vivo pharmacokinetic behaviors of nitroxoline and the compound obtained in Example 1 in rats.
Male SD rats (Beijing Vital River Laboratory Animal Technology Co., Ltd., laboratory animal production license No.: SCXK (Beijing) 2016-0006, laboratory animal certificate No.: 11400700325643), 3 rats per group, weight 180-250 g, 6-7 weeks old, were fasted overnight before drug administration with free access to water, and food was given 4 hours after drug administration. The compound to be tested was put into an EP tube, 1.017 mL dimethyl sulfoxide, 2.035 mL Solutol® and sterile water for injection (the volume ratio of the three was 1:2:17, v:v:v) were added, and the EP tube was sonicated for 20 minutes to fully dissolve the compound (formulation concentration of the compound: 0.005 mmol/mL). […]
Sample to be tested: to 50 μL of plasma sample to be tested was added 5 μL of diluted working solution, then 150 μL of internal standard working solution (a solution of 2 ng/mL diphenhydramine in acetonitrile), and the resulting solution was vortexed for 1 minute. […] Pharmacokinetic parameters were calculated using WinNonlin V6.2 non-compartmental model.

The conditions of series [7]: human; single-arm, open-label, multi-center phase II clinical trial; cited from earlier work.

As for `CC(C)C(=O)N1CCC[C@H]1C(=O)OCOc1ccc([N+](=O)[O-])c2cccnc12` [Compound obtained in Example 1, ((5-nitroquinolin-8-yl)oxy)methyl-isobutyryl-L-prolinate], the “Percentage (%) of remaining compound in human liver microsomes” value in series [1] (With coenzyme) was found to be 26.92%; in series [1] (Without coenzyme), 59.42%. For the same compound, the figures for the “Percentage (%) of remaining compound in dog liver microsomes” value in series [2] (With coenzyme) and in series [2] (Without coenzyme) were 33.13% and 53.50%, respectively. Moreover, the “Percentage (%) of remaining compound in rat liver microsomes” value in series [3] (With coenzyme) worked out at 3.64%; in series [3] (Without coenzyme) it was 46.82%. In addition, the “Percentage (%) of remaining compound in mouse liver microsomes” value came out at 0.09% in series [4] (With coenzyme) and 49.07% in series [4] (Without coenzyme). For the same compound, the “AUC0-inf of nitroxoline in plasma” value in series [5] (intravenous 0.01 mmol/kg) was 1290 ng*hmL^−1; in series [5] (oral 0.1 mmol/kg), 8750 ng*hmL^−1.
What is called half-life is the time needed for the level to fall by half in the phase considered. `O=[N+]([O-])c1ccc(O)c2ncccc12` [Nitroxoline, 5-nitro-8-hydroxyquinoline]: the “Plasma concentration of nitroxoline” value in series [6] is <5.0 ng/mL (2×) and 14.6 ng/mL. Moreover, the “AUC0-inf of nitroxoline in plasma” value in series [5] (intravenous 0.01 mmol/kg) was found to be 3300 ng*hmL^−1; in series [5] (oral 0.1 mmol/kg), 4780 ng*hmL^−1. Also, in series [7], the half-life was 1.22 to 1.44 h.

The record behind these values is US12583835B2, “Crystal form of nitroxoline prodrug, pharmaceutical composition containing same, and preparation method therefor and application thereof” (Jiangsu Yahong Meditech Co., Ltd., priority 2020, dated 2026).
